Assay results from patent publication US20240109910A1, “HEXAHYDRO-5,8-EPOXYCYCLOHEPTA[c]PYRAZOLE DERIVATIVES USEFUL AS MODULATORS OF THE CB1 AND / OR CB2 RECEPTORS” (JANSSEN PHARMACEUTICA NV, priority 2019, published 2024).
Read-outs that look alike come from different tables or passages of the source.

Columns and labels:
hCB1 receptor = hCB1 receptor (Homo sapiens, UniProt P21554); assay: Agonism of CB1 by detection of cAMP using HTRF; assay type: cell-based; settings: for Emax: normalized to DMSO and maximal activation (5 nM CP55940)
Chain of hCB1 receptor (P21554 whole entry): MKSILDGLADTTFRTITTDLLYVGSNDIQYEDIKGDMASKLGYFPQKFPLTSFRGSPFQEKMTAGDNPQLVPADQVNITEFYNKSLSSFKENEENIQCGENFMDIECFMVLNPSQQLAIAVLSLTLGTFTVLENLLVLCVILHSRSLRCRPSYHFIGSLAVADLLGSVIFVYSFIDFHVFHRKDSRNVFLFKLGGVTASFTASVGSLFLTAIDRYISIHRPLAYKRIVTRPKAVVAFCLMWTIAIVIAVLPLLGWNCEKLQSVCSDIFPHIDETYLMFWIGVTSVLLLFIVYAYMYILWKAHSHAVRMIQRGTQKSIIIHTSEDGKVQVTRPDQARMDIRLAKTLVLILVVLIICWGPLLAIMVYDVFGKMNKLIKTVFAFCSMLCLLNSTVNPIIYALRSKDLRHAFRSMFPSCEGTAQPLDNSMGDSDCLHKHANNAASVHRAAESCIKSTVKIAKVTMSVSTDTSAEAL
Description: (§1) Method for Assaying Agonism of CB1 or CB2 by Detection of cAMP Using Homogeneous Time-Resolved Fluorescence (HTRF®)
(§2) CHOP-K1 cells stably expressing the CB1 receptor (PerkinElmer, ES-110-C) or the CB2 receptor (PerkinElmer, ES-111-CF) were seeded into 384 well white TC-treated plates (Greiner 781080) at 7000 cells per well in Ham's media (Gibco #31765-035) supplemented with 10% FBS (Gibco #16000-044) and 500 μg/mL Geneticin (Gibco #10131-027) and cultured overnight. The next day, plates were washed one time in assay buffer (HBSS with Ca^2+ and Mg^2+ (Corning #21-023-CV)+20 mM HEPES (Corning #25-060-Cl) and 0.01% BSA (Sigma A2153)). In a separate compound plate (Greiner 781201-906), 50 nL of test compound or DMSO was transferred using the Echo 550 (Labcyte), then 40 μL/well of assay buffer with 0.5 mM IBMX, 2 μM Forskolin (Sigma F3917), and 0.01% BSA was added. For the CB1 assay, assay buffer was dumped from the cell plate and fresh assay buffer containing 0.5 mM IBMX (Sigma I5679) was added at 30 μL/well, and the plate was incubated for 1 hr at 37° C., 5% CO2. Following the IBMX pre-treatment step, buffer was dumped from the cell plate, and 20 μL/well of the assay buffer with test compound was transferred into the cell plate with a subsequent incubation of 20 min at room temperature. Reagents for cAMP detection (cisbio 62AM4PEJ) were prepared and subsequently transferred to the cell plate at 20 μL/well. Following a 1 hr incubation at room temperature, the plate was read on the Pherastar FX (BMG, excitation 320 nm, detection at 620 nm (donor) and 665 nm (acceptor)). The ratio of signal at 665 nm/620 nm was determined for each well in the plate. For each assay day, a cAMP standard curve was run in parallel to assess the range of response and determine the concentration of cAMP in each well. Control wells (n=16 of each) with no activation of CB1 receptor (DMSO) and maximal activation (5 nM CP55940, Sigma) were used to normalize the data and to determine signal-to-background ratio and Z′. For the CB2 assay, conditions were as described above for the CB1 assay, except that the IBMX preincubation step was not used and that the 20 min compound incubation step occurred in the incubator at 37° C., 5% CO2.
(§3) EC50 values were calculated from dose response curves by nonlinear regression analysis using PRISM software.
(§4) Representative compounds of the present invention were tested according to the procedures described in Biological Example 1 above, with results as listed in Table 3, below. If a compound was tested more than once (due to multiple samples or batches), then the value listed in Table 3 below represents the average of the measured values.

hCB2 receptor = hCB2 receptor (Homo sapiens, UniProt P34972); assay: Agonism of CB2 by detection of cAMP using HTRF; assay type: cell-based; settings: for Emax: normalized to DMSO and maximal activation (5 nM CP55940)
Chain of hCB2 receptor (P34972 whole entry): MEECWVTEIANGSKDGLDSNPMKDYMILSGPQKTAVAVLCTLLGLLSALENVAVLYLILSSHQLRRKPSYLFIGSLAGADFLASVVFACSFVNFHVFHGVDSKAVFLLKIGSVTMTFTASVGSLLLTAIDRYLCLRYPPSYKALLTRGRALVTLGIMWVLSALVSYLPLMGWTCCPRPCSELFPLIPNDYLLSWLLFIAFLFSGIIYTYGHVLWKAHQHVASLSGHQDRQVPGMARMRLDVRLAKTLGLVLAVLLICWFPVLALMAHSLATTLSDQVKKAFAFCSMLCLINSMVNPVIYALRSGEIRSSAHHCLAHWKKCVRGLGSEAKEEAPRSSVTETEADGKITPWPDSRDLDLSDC
Description: as §1, §2, §3, §4

[1] = CHO cells stably expressing CB1 receptor, cAMP HTRF, forskolin-stimulated, average if tested more than once, read-out: hCB1 CHO EC50
[2] = CHO cells stably expressing CB1 receptor
[3] = CHO cells stably expressing CB2 receptor, cAMP HTRF, forskolin-stimulated, average if tested more than once, read-out: hCB2 CHO EC50
[4] = CHO cells stably expressing CB2 receptor

Row | SMILES | EC50 (hCB1 receptor; [1]) [nM] | Emax (hCB1 receptor; [2]) [%] | EC50 (hCB2 receptor; [3]) [nM] | Emax (hCB2 receptor; [4]) [%] | EC50 (hCB1 receptor) [nM] | EC50 (hCB2 receptor) [nM]
1 | CC(C)(C)c1noc(-c2nn(-c3c[n+]([O-])ccn3)c3c2CC2CCC3O2)n1 (centres unmarked) [Compound 26, 3-(3-(3-(tert-butyl)-1,2,4-oxadiazol-5-yl)-5,6,7,8-tetrahydro-5,8-epoxycyclohepta[c]pyrazol-1(4H)-yl)pyrazine 1-oxide] | 4920 | 73.3 | 0.13 | 100 |  | 
2 | CC(C)(C)c1nnc(-c2nn(-c3c[n+]([O-])ccn3)c3c2CC2CCC3O2)s1 (centres unmarked) [Compound 27, 3-(3-(5-(tert-butyl)-1,3,4-thiadiazol-2-yl)-5,6,7,8-tetrahydro-5,8-epoxycyclohepta[c]pyrazol-1(4H)-yl)pyrazine 1-oxide] | 130 | 94.9 | 0.06 | 99 |  | 
3 | CC(C)(C)c1nnc(-c2nn(-c3c[n+]([O-])ccn3)c3c2CC2CCC3O2)o1 (centres unmarked) [Compound 29, 3-(3-(5-(tert-butyl)-1,3,4-oxadiazol-2-yl)-5,6,7,8-tetrahydro-5,8-epoxycyclohepta[c]pyrazol-1(4H)-yl)pyrazine 1-oxide] | 2370 | 79.3 | 0.2 | 101 |  | 
4 | CC(C)(C)NC(=O)c1nn(-c2c[n+]([O-])ccn2)c2c1CC1CCC2O1 (centres unmarked) [Compound 31, 3-(3-(tert-butylcarbamoyl)-5,6,7,8-tetrahydro-5,8-epoxycyclohepta[c]pyrazol-1(4H)-yl)pyrazine 1-oxide] | 1430 | 83.2 | 0.33 | 99.7 |  | 
5 | CC(C)(C)c1noc(-c2nn(-c3cnccn3)c3c2CC2CCC3O2)n1 (centres unmarked) [Compound 37, 3-(3-(tert-butyl)-1,2,4-oxadiazol-5-yl)-1-(pyrazin-2-yl)-1,4,5,6,7,8-hexahydro-5,8-epoxycyclohepta[c]pyrazole] | 177 | 34.8 | 0.22 | 99.2 |  | 
6 | CC(C)(C)c1nnc(-c2nn(-c3cnccn3)c3c2CC2CCC3O2)s1 (centres unmarked) [Compound 38, 3-(5-(tert-butyl)-1,3,4-thiadiazol-2-yl)-1-(pyrazin-2-yl)-1,4,5,6,7,8-hexahydro-5,8-epoxycyclohepta[c]pyrazole] |  | 114 |  | 100 | 283 | 0.04
7 | O=C(NC12CC3CC(CC1C3)C2)c1nn(-c2ccc(F)cc2F)c2c1CC1CCC2O1 [Compound 41, 1-(2,4-difluorophenyl)-N-((2R,3as,5S,6as)-hexahydro-2,5-methanopentalen-3a(1H)-yl)-1,4,5,6,7,8-hexahydro-5,8-epoxycyclohepta[c]pyrazole-3-carboxamide] | 0.7 | 98 | 0.08 | 99.1 |  | 
8 | O=C(NC[C@]12C[C@@H]3C[C@@H](C[C@@H](C3)C1)C2)c1nn(-c2ccc(F)cc2F)c2c1CC1CCC2O1 [Compound 42, N-(((3r,5r,7r)-adamantan-1-yl)methyl)-1-(2,4-difluorophenyl)-1,4,5,6,7,8-hexahydro-5,8-epoxycyclohepta[c]pyrazole-3-carboxamide] | 260 | 98.2 | 10.3 | 77.1 |  | 
